The record followed here is PubChem BioAssay (NCI).

Each structure is given as a SMILES string.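 Following 48 hours of exposure in 96-well plates, responses at five concentrations were used to interpolate endpoints linearly. Here, GI50 denotes the concentration required for 50% inhibition of growth. Definition used: TGI = concentration required for complete inhibition of growth.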

Common to all, as to test: NCI-60 cell line screen, 48 h
Assay [1] has as its system ACHN renal.
The subject of assay [2] is HL-60(TB) leukemia.
The test system of assay [3] is NCI-H226 lung.
Assay [4] concerns OVCAR-5 ovarian.
The subject of assay [5] is SF-539 CNS.
Assay [6] concerns KM12 colon.
The subject of assay [7] is NCI-H23 lung.
In assay [8] the test system is CCRF-CEM leukemia.
The subject of assay [9] is TK-10 renal.
Assay [10] deals with SN12C renal.

As to `CCOC(=O)c1[nH]c2c(c1C)-c1[nH]c(=O)c(S(=O)(=O)c3ccccc3)cc1SC2`, the GI50 in [1] is 47.3 µM; in assay [2] it was 23.2 µM; in assay [3], 64.4 µM; in assay [4], over 100 µM; in assay [5], 30.6 µM; in [6], 38.5 µM. Besides, the GI50 in assay [7] is 41.1 µM; in assay [8] it was 57.8 µM; in assay [9], 42.6 µM; in assay [10], 93.6 µM. Further, the TGI in assay [1], in assay [2], in assay [3], in assay [4], in assay [5] and in assay [6] was over 100 µM each time. Also, the TGI in assay [7], in assay [8], in assay [9] and in assay [10] was over 100 µM each time.
`S=C(Nc1ccccc1)Nc1[nH]c(=S)sc1-c1nc2ccccc2[nH]1`: the TGI in [1] was over 100 µM; in [2], over 100 µM; in assay [3], 29.4 µM; in assay [4] it was over 100 µM; in assay [5], 74.3 µM; in assay [6], over 100 µM. Moreover, the TGI in assay [7], in assay [8], in assay [9] and in assay [10] was over 100 µM in each case.
As to `CC(C)OP(=O)(OC(C)C)C(N(C)C)P(=O)(OC(C)C)OC(C)C.[Cl][Sn]([Cl])([Cl])[c]1ccccc1`, the GI50 in [1] was 3.3 µM; in [2] it was 1.63 µM; in [3], 2.05 µM; in assay [4] it was 4.37 µM; in assay [5], 3.46 µM; in [6] it was 3.6 µM. In addition, the GI50 in [7] was 4.84 µM; in assay [8], 2.07 µM; in assay [9] it was 14.4 µM; in [10], 4.13 µM. Moreover, the TGI in assay [1] is over 100 µM; in [2], 4.84 µM; in assay [3], 9.69 µM; in [4] it was 49.1 µM; in assay [5] it was 15.1 µM; in assay [6], over 100 µM. For the same compound, the TGI is 31.3 µM in assay [7], 18.6 µM in assay [8], over 100 µM in assay [9] and over 100 µM in assay [10].
As to `CN1C(=O)c2cc(Cl)nc3c(NC(=O)c4cccc(Cl)c4)c(Cl)c(NC(=O)c4cccc(Cl)c4)c1c23`, the GI50 in [1] was 1.72 µM; in [2] it was 2.17 µM; in assay [3], 2.02 µM; in assay [4], 12.8 µM; in assay [5] it was 1.67 µM; in [6], 3.44 µM. The GI50 in assay [7] was 2.14 µM; in assay [8], 2.01 µM; in assay [9], 2.28 µM; in assay [10], 1.84 µM. The TGI turned out to be 3.09 µM in assay [1]; 5.11 µM in assay [2]; 4.05 µM in assay [3]; 30.1 µM in assay [4]; 3.39 µM in [5]; 15.5 µM in assay [6]. Further, the TGI in assay [7] stood at 5.92 µM; in assay [8] it was 5.59 µM; in [9], 5.84 µM; in assay [10], 3.48 µM.
In the case of `COc1cc2oc3ccccc3c(=O)c2cc1CSc1ccccc1N`, the TGI is over 100 µM in assay [1]; 64.8 µM in assay [2]; over 100 µM in assay [3]; over 100 µM in assay [4]; over 100 µM in [5]; 84 µM in assay [6]. The TGI was over 100 µM in assay [7], 45.6 µM in [8], over 100 µM in assay [9] and over 100 µM in assay [10].
As to `CC1CCC(O)C(C(O)CC2CC(=O)N(C)C(=O)C2)C1` (centres undefined), the TGI in assay [1], in assay [2], in assay [3], in assay [4], in assay [5] and in [6] was over 100 µM throughout. For the same compound, the TGI in assay [7], in assay [8], in assay [9] and in [10] was over 100 µM each time.
For the compound `N#CC1c2ccccc2-c2ccccc2N1C(=O)c1ccccc1` (centres undefined), the GI50 in assay [1] is 4.05 µM; in assay [2] it was 0.337 µM; in assay [3], 3.11 µM; in assay [4] it was 5.37 µM; in assay [5], 2.29 µM; in assay [6], 1.16 µM. The GI50 in assay [7] is 3.09 µM; in assay [8], 2.17 µM; in assay [9], 1.23 µM; in [10] it was 3.86 µM. The TGI in assay [1] is over 100 µM; in assay [3], over 100 µM; in assay [4] it was over 100 µM; in [5], 7.05 µM; in assay [6] it was 4.17 µM; in assay [7], over 100 µM. Moreover, the TGI is over 36.3 µM in [8], 28.2 µM in assay [9] and over 92.2 µM in [10].
As to `CCCC/C(=N\N=C(N)N)c1ccc(F)cc1`, the GI50 in [1] is 5.33 µM; in assay [2] it was 2.29 µM; in [3], 2.78 µM; in [4], 5.08 µM; in assay [5] it was 2.77 µM; in [6], 2.79 µM. In addition, the GI50 in assay [7] is 3.34 µM; in assay [8], 2.23 µM; in assay [9] it was 7.83 µM; in assay [10], 4.37 µM. For the same compound, the TGI in assay [1] was 17.5 µM; in assay [2] it was 6.09 µM; in [3], 13.3 µM; in assay [4] it was 17.8 µM; in assay [5] it was 8.59 µM; in assay [6] it was 14 µM. The TGI in assay [7] stood at 17.1 µM; in [8], 11.7 µM; in [9], 20.8 µM; in assay [10] it was 17.3 µM.
`COC(=O)C(CC=O)C(=O)C(=O)Nc1cccc(C(F)(F)F)c1` (centres undefined): the TGI in assay [1], in assay [2], in assay [3], in [4], in assay [5] and in assay [6] was over 100 µM each time. For the same compound, the TGI in assay [7], in assay [8], in assay [9] and in assay [10] was over 100 µM each time.
